Broadly, the solubility is the dissolved amount per volume that the medium holds. What is called bioavailability is the share of a dose that reaches the circulation, judged against a reference dose that is usually intravenous. Broadly, the AUC(0-inf) is the area under the concentration-time curve extrapolated to infinity. As a reminder, the Cmax is the peak of the concentration-time curve. The Tmax is the time from dosing to the highest level. By clearance is commonly meant the rate of elimination divided by the concentration. As usually defined, the Vd is a proportionality between amount in the body and measured concentration, not a real space.

Structures are written as SMILES. ≈ marks a conversion by molar mass, not a printed value.

Data on one molecule can be found in paper PMC9093646, “Physicochemical and Biochemical Evaluation of Amorphous Solid Dispersion of Naringenin Prepared Using Hot-Melt Extrusion” (Frontiers in Nutrition, 2022).

One data set can be described thus: Solubility test (HPLC). The data set is classed as physicochemical. Particulars: aqueous buffer, thermodynamic from solid, dissolution test solution 2 (pH 6.8), 37°C, read-out: water solubility. Here is the method: The prepared NRG SD (500 mg; equivalent to 50 mg NRG) was added to 2.5 mL dissolution test solution 2. The mixture was shaken vigorously at 37°C for 30 min and centrifuged ([15], [17]). The supernatant was then passed through a 0.2-μm filter and subjected to high-performance liquid chromatography (HPLC) analysis. The NRG concentration was determined using an HPLC system fitted with the LC-20AD pump and the SPD-M20 detector (Shimadzu Corp., Kyoto, Japan) ([15]). A reverse-phase column (CAPCELL PAK C18 MGII; 4.6 mm × 100 mm; 5 μm; Shiseido Co., Ltd., Tokyo, Japan) was operated at 40°C. The mobile phase consisted of a methanol-water (45:55, v/v) mixture with 0.05% (v/v) phosphoric acid, and it was ultrasonically degassed before use. The flow rate was set at 1 mL/min, and the detection wavelength was set at 289 nm. The sample injection volume was 10 μL. The HPLC was calibrated using standard methanol-water (50:50, v/v) NRG solutions in the concentration range of 0.125–40 μg/mL.

The nature of data set [1]: Dissolution test, Japanese Pharmacopoeia paddle method. The class given is physicochemical. The settings on record: test solution 1 (pH 1.2), after 120 min. On the procedure:
The dissolution test was conducted using the paddle method described in the Japanese Pharmacopoeia ([26]). First, 900 mL dissolution test solution 1 or 2 was placed in the dissolution tester vessel and then 30 mg of crystalline NRG, 300 mg of PM, and 300 mg of SD were added to it. The temperature (37°C) and stirring rate (100 rpm) were maintained during the experiment. Samples were collected 2, 5, 10, 20, 30, 45, 60, 90, and 120 min after sample addition. The solutions were passed through 0.2-μm filters, and the filtrates were subjected to HPLC analysis.

Data set [2] in a line: Pharmacokinetics after oral administration. The class given is in vivo, rat. Particulars: rats, equivalent to 100 mg/kg NRG. On the procedure:
Each solution was suspended in ion-exchange water immediately prior to administration. […] The blood was stored in heparinized hematocrit tubes, and the plasma was isolated by centrifugation. […] The samples were incubated at 37°C overnight and extracted using the same method that was employed for those containing the unchanged NRG. LC-MS/MS analysis was performed using an ACQUITY UPLC system (Waters Corp., Milford, MA, United States) fitted with a cooling autosampler and a column oven with temperature control. Mass spectrometry was performed using a Waters Xevo TQ-S tandem quadrupole mass spectrometer (QQ-MS; Waters Corp.). Chromatographic separation was performed on an ACQUITY UPLC BEH C18 1.7 μm column (50 mm × 2.1 mm; Waters Corp.). […] Positive electrospray ionization was used to generate the parental ions. Multiple reaction monitoring, using precursor → product ion transitions of m/z 273.04 → 152.97 and m/z 255.10 → 198.99, was used to quantify NRG and daidzein (internal standard), respectively.

The nature of data set [3]: Pharmacokinetics after intravenous administration of serum containing unchanged NRG and NRG metabolites. The data set is classed as in vivo, rat. Particulars: rats. Here is the method:
The same amount of NRG SD was intragastrically administered 5 min later. Blood was collected from the heart under isoflurane anesthesia 35 min after the first administration and stored at 4°C for several hours. Serum was then isolated by centrifugation and analyzed by liquid chromatography-tandem mass spectrometry (LC-MS/MS). […] Serum containing the unchanged NRG and NRG metabolites was administered via the tail vein at a dose of 500 μL/rat. […] The plasma was isolated by centrifugation. […] The mixture was centrifuged at 4°C, and 25 μL supernatant was collected and mixed with 75 μL of 30% (v/v) acetonitrile. […] The samples were incubated at 37°C overnight and extracted using the same method that was employed for those containing the unchanged NRG. LC-MS/MS analysis was performed using an ACQUITY UPLC system (Waters Corp., Milford, MA, United States) fitted with a cooling autosampler and a column oven with temperature control. Mass spectrometry was performed using a Waters Xevo TQ-S tandem quadrupole mass spectrometer (QQ-MS; Waters Corp.). Chromatographic separation was performed on an ACQUITY UPLC BEH C18 1.7 μm column (50 mm × 2.1 mm; Waters Corp.). […] The flow rate was set at 0.5 mL/min. The sample injection volume was 5 μL. […]. Positive electrospray ionization was used to generate the parental ions. Multiple reaction monitoring, using precursor → product ion transitions of m/z 273.04 → 152.97 and m/z 255.10 → 198.99, was used to quantify NRG and daidzein (internal standard), respectively.

The test system of data set [4] is acetic acid-induced writhing in rats. Description: Acetic acid-induced writhing test. The class given is in vivo, rat. The settings on record: oral 5 min before i.p. acetic acid, counted over 25 min, crystalline NRG 100 mg/kg, NRG SD 30 or 100 mg/kg. Here is the method:
The acetic acid-induced writhing test was performed according to the method of Pinho-Ribeiro et al. ([8]) with modifications. Rats aged 5–7 weeks were fasted for 16 h and divided into four groups of eight animals per group. The first group was intragastrically administered 10 mL/kg saline as a control. The second group was intragastrically administered crystalline NRG at 100 mg/kg BW. The third and fourth groups were intragastrically administered NRG SD equivalent to 30 mg/kg and 100 mg/kg BW NRG, respectively. After 5 min, each rat was intraperitoneally injected with 10 mL/kg of 0.8% (v/v) acetic acid in saline solution. Visceral pain intensity was quantified by enumerating the abdominal writhing within 0–25 min after the stimulus. The writhing response was characterized by the contraction of abdominal muscles and stretching of the hind limbs.
(An intraperitoneal irritant provokes the stretching counted in writhing tests.)

On the set-up of data set [5]: method as in PMID 17047689. The settings on record: humans; cited from earlier work.

Take `O=C1C[C@@H](c2ccc(O)cc2)Oc2cc(O)cc(O)c21` [NRG, Naringenin]: the solubility at 30 min in the data set “Solubility test (HPLC)” turned out to be 70 µg/mL (≈ 257 µM). Besides, the “dissolved NRG” value in data set [1] is reported as 40%. For the same molecule, the AUC(0-t) in data set [2] (rat, plasma, po, 100 mg/kg, unchanged NRG in plasma, read-out: AUC0–1 h) amounted to 30 ± 10 ng·h/mL; in data set [2] (rat, plasma, po, 100 mg/kg, unchanged NRG in plasma, read-out: AUC0–t), 740 ± 240 ng·h/mL; in data set [3] (plasma, iv, serum 500 μL/rat, two-compartment model), 120 ± 20 ng·h/mL. Also, in data set [2] (rat, plasma, po, 100 mg/kg, unchanged NRG, read-out: F, absolute bioavailability), the bioavailability is about 0.5%. Also, the AUC(0-inf) in data set [2] (rat, unchanged NRG in plasma) is 740 ± 240 ng·h/mL; in data set [3] (plasma, iv, serum with 34.8 μg/mL unchanged NRG and 134.5 μg/mL NRG metabolites, 500 μL/rat, two-compartment model) it was 130 ± 20 ng·h/mL. Further, the Cmax in data set [2] (rat, unchanged NRG in plasma) was determined as 130 ± 10 ng/mL. Also, the Tmax in data set [2] (rat, unchanged NRG in plasma) stood at 4 ± 1.26 h. Also, the “F, absolute bioavailability” value in data set [2] (unchanged NRG) is on record as 0.52 ± 0.17%. Further, in data set [3] (plasma, iv, i.v., serum 500 μL/rat, two-compartment model, read-out: CL, total body clearance (converted)), the clearance was 2.67 mL/min. Further, the Vd in data set [3] (plasma, iv, i.v., serum 500 μL/rat, two-compartment model, read-out: Vd, volume of distribution) turned out to be 0.19 ± 0.08 L/kg. Further, the k el in data set [3] (plasma, iv, i.v., serum 500 μL/rat, two-compartment model, read-out: ke, elimination rate constant (converted)) was 0.00509 s⁻¹. In addition, in data set [3] (plasma, iv, i.v., serum 500 μL/rat, two-compartment model, read-out: t1/2, elimination half-life time (converted)), the half-life was 59.4 ± 19.8 min. In addition, in data set [3] (i.v.), the “distribution volume as share of the body weight” value is on record as about 20%. Besides, the “number of writhings compared to the control” value in data set [4] is “significantly decreased”. Moreover, the “cumulative urinary excretion rate relative to the oral NRG dose” value in data set [5] is recorded as about 5.8%.
